Data published in ChEMBL document CHEMBL1201861, “Genomics of Drug Sensitity in Cancer screening data, Wellcome Trust Sanger Institute”.

Experiments:
Test in all cases: cells
D-502MG = assay type: functional, cell-based, Homo sapiens; conditions: Homo sapiens, D-502MG
Description: SANGER: Inhibition of human D-502MG cell growth in a cell viability assay.

HT = assay type: functional, cell-based, Homo sapiens; conditions: Homo sapiens, HT
Description: SANGER: Inhibition of human HT cell growth in a cell viability assay.

KLE = assay type: functional, cell-based; conditions: Homo sapiens
Description: SANGER: Inhibition of human KLE cell growth in a cell viability assay.

DU-4475 = assay type: functional, cell-based, Homo sapiens; conditions: Homo sapiens, DU-4475
Description: SANGER: Inhibition of human DU-4475 cell growth in a cell viability assay.

QIMR-WIL = assay type: functional, cell-based, Homo sapiens; conditions: Homo sapiens, QIMR-WIL
Description: SANGER: Inhibition of human QIMR-WIL cell growth in a cell viability assay.

IST-SL1 = assay type: functional, cell-based, Homo sapiens; conditions: Homo sapiens, IST-SL1
Description: SANGER: Inhibition of human IST-SL1 cell growth in a cell viability assay.

HEL = assay type: functional, cell-based, Homo sapiens; conditions: Homo sapiens, HEL
Description: SANGER: Inhibition of human HEL cell growth in a cell viability assay.

NCI-H1770 = assay type: functional, cell-based, Homo sapiens; conditions: Homo sapiens, NCI-H1770
Description: SANGER: Inhibition of human NCI-H1770 cell growth in a cell viability assay.

MSTO-211H = assay type: functional, cell-based, Homo sapiens; conditions: Homo sapiens, MSTO-211H
Description: SANGER: Inhibition of human MSTO-211H cell growth in a cell viability assay.

TE-9 = assay type: functional, cell-based, Homo sapiens; conditions: Homo sapiens, TE-9
Description: SANGER: Inhibition of human TE-9 cell growth in a cell viability assay.

BV-173 = assay type: functional, cell-based, Homo sapiens; conditions: Homo sapiens, BV-173
Description: SANGER: Inhibition of human BV-173 cell growth in a cell viability assay.

NB5 = assay type: functional, cell-based, Homo sapiens; conditions: Homo sapiens, NB5
Description: SANGER: Inhibition of human NB5 cell growth in a cell viability assay.

DOHH-2 = assay type: functional, cell-based, Homo sapiens; conditions: Homo sapiens, DOHH-2
Description: SANGER: Inhibition of human DOHH-2 cell growth in a cell viability assay.

A704 = assay type: functional, cell-based; conditions: Homo sapiens
Description: SANGER: Inhibition of human A704 cell growth in a cell viability assay.

EW-16 = assay type: functional, cell-based, Homo sapiens; conditions: Homo sapiens, EW-16
Description: SANGER: Inhibition of human EW-16 cell growth in a cell viability assay.

KY821 = assay type: functional, cell-based, Homo sapiens; conditions: Homo sapiens, KY821
Description: SANGER: Inhibition of human KY821 cell growth in a cell viability assay.

LC-2-ad = assay type: functional, cell-based, Homo sapiens; conditions: Homo sapiens, LC-2-ad
Description: SANGER: Inhibition of human LC-2-ad cell growth in a cell viability assay.

NCI-H1581 = assay type: functional, cell-based, Homo sapiens; conditions: Homo sapiens, NCI-H1581
Description: SANGER: Inhibition of human NCI-H1581 cell growth in a cell viability assay.

IST-MEL1 = assay type: functional, cell-based, Homo sapiens; conditions: Homo sapiens, IST-MEL1
Description: SANGER: Inhibition of human IST-MEL1 cell growth in a cell viability assay.

D-247MG = assay type: functional, cell-based; conditions: Homo sapiens
Description: SANGER: Inhibition of human D-247MG cell growth in a cell viability assay.

TE-8 = assay type: functional, cell-based, Homo sapiens; conditions: Homo sapiens, TE-8
Description: SANGER: Inhibition of human TE-8 cell growth in a cell viability assay.

HDLM-2 = assay type: functional, cell-based, Homo sapiens; conditions: Homo sapiens, HDLM-2
Description: SANGER: Inhibition of human HDLM-2 cell growth in a cell viability assay.

A388 = assay type: functional, cell-based; conditions: Homo sapiens
Description: SANGER: Inhibition of human A388 cell growth in a cell viability assay.

NCI-H1838 = assay type: functional, cell-based, Homo sapiens; conditions: Homo sapiens, NCI-H1838
Description: SANGER: Inhibition of human NCI-H1838 cell growth in a cell viability assay.

LAN-6 = assay type: functional, cell-based, Homo sapiens; conditions: Homo sapiens, LAN-6
Description: SANGER: Inhibition of human LAN-6 cell growth in a cell viability assay.

TE-5 = assay type: functional, cell-based, Homo sapiens; conditions: Homo sapiens, TE-5
Description: SANGER: Inhibition of human TE-5 cell growth in a cell viability assay.

ES7 = assay type: functional, cell-based, Homo sapiens; conditions: Homo sapiens, ES7
Description: SANGER: Inhibition of human ES7 cell growth in a cell viability assay.

KINGS-1 = assay type: functional, cell-based, Homo sapiens; conditions: Homo sapiens, KINGS-1
Description: SANGER: Inhibition of human KINGS-1 cell growth in a cell viability assay.

MPP-89 = assay type: functional, cell-based, Homo sapiens; conditions: Homo sapiens, MPP-89
Description: SANGER: Inhibition of human MPP-89 cell growth in a cell viability assay.

NCI-H1092 = assay type: functional, cell-based, Homo sapiens; conditions: Homo sapiens, NCI-H1092
Description: SANGER: Inhibition of human NCI-H1092 cell growth in a cell viability assay.

MMAC-SF = assay type: functional, cell-based; conditions: Homo sapiens
Description: SANGER: Inhibition of human MMAC-SF cell growth in a cell viability assay.

no-11 = assay type: functional, cell-based, Homo sapiens; conditions: Homo sapiens
Description: SANGER: Inhibition of human no-11 cell growth in a cell viability assay.

SW982 = assay type: functional, cell-based; conditions: Homo sapiens
Description: SANGER: Inhibition of human SW982 cell growth in a cell viability assay.

EM-2 = assay type: functional, cell-based, Homo sapiens; conditions: Homo sapiens, EM-2
Description: SANGER: Inhibition of human EM-2 cell growth in a cell viability assay.

NCI-H69 = assay type: functional, cell-based, Homo sapiens; conditions: Homo sapiens, NCI-H69
Description: SANGER: Inhibition of human NCI-H69 cell growth in a cell viability assay.

SW872 = assay type: functional, cell-based, Homo sapiens; conditions: Homo sapiens, SW872
Description: SANGER: Inhibition of human SW872 cell growth in a cell viability assay.

EW-11 = assay type: functional, cell-based, Homo sapiens; conditions: Homo sapiens, EW-11
Description: SANGER: Inhibition of human EW-11 cell growth in a cell viability assay.

SK-UT-1 = assay type: functional, cell-based, Homo sapiens; conditions: Homo sapiens, SK-UT-1
Description: SANGER: Inhibition of human SK-UT-1 cell growth in a cell viability assay.

NCI-H226 = assay type: functional, cell-based, Homo sapiens; conditions: Homo sapiens, NCI-H226
Description: SANGER: Inhibition of human NCI-H226 cell growth in a cell viability assay.

LS-513 = assay type: functional, cell-based, Homo sapiens; conditions: Homo sapiens, LS-513
Description: SANGER: Inhibition of human LS-513 cell growth in a cell viability assay.

BB30-HNC = assay type: functional, cell-based, Homo sapiens; conditions: Homo sapiens, BB30-HNC
Description: SANGER: Inhibition of human BB30-HNC cell growth in a cell viability assay.

NCI-H1395 = assay type: functional, cell-based, Homo sapiens; conditions: Homo sapiens, NCI-H1395
Description: SANGER: Inhibition of human NCI-H1395 cell growth in a cell viability assay.

OCUB-M = assay type: functional, cell-based; conditions: Homo sapiens
Description: SANGER: Inhibition of human OCUB-M cell growth in a cell viability assay.

KGN = assay type: functional, cell-based, Homo sapiens; conditions: Homo sapiens, KGN
Description: SANGER: Inhibition of human KGN cell growth in a cell viability assay.

EW-18 = assay type: functional, cell-based, Homo sapiens; conditions: Homo sapiens, EW-18
Description: SANGER: Inhibition of human EW-18 cell growth in a cell viability assay.

no-10 = assay type: functional, cell-based, Homo sapiens; conditions: Homo sapiens
Description: SANGER: Inhibition of human no-10 cell growth in a cell viability assay.

ACN = assay type: functional, cell-based, Homo sapiens; conditions: Homo sapiens, ACN
Description: SANGER: Inhibition of human ACN cell growth in a cell viability assay.

OCI-AML2 = assay type: functional, cell-based, Homo sapiens; conditions: Homo sapiens, OCI-AML2
Description: SANGER: Inhibition of human OCI-AML2 cell growth in a cell viability assay.

GAK = assay type: functional, cell-based, Homo sapiens; conditions: Homo sapiens, GAK
Description: SANGER: Inhibition of human GAK cell growth in a cell viability assay.

## NC(=O)c1cccc(-c2cc(Nc3ccc(OC(F)(F)F)cc3)ncn2)c1
D-502MG
  IC50: > 1280 nM
HT
  IC50: > 1280 nM
KLE
  IC50: > 1280 nM
DU-4475
  IC50: > 1280 nM
QIMR-WIL
  IC50: > 1280 nM
IST-SL1
  IC50: > 1280 nM
HEL
  IC50: > 1280 nM
NCI-H1770
  IC50: > 1280 nM
MSTO-211H
  IC50: > 1280 nM
TE-9
  IC50: > 1280 nM
BV-173
  IC50: 286 nM
NB5
  IC50: > 1280 nM
DOHH-2
  IC50: > 1280 nM
A704
  IC50: > 1280 nM
EW-16
  IC50: > 1280 nM
KY821
  IC50: > 1280 nM
LC-2-ad
  IC50: > 1280 nM
NCI-H1581
  IC50: > 1280 nM
IST-MEL1
  IC50: > 1280 nM
D-247MG
  IC50: > 1280 nM
TE-8
  IC50: > 1280 nM
HDLM-2
  IC50: > 1280 nM
A388
  IC50: > 1280 nM
NCI-H1838
  IC50: > 1280 nM
LAN-6
  IC50: > 1280 nM
TE-5
  IC50: > 1280 nM
ES7
  IC50: > 1280 nM
KINGS-1
  IC50: > 1280 nM
MPP-89
  IC50: > 1280 nM
NCI-H1092
  IC50: > 1280 nM
MMAC-SF
  IC50: > 1280 nM
no-11
  IC50: > 1280 nM
SW982
  IC50: > 1280 nM
EM-2
  IC50: 235 nM
NCI-H69
  IC50: > 1280 nM
SW872
  IC50: > 1280 nM
EW-11
  IC50: > 1280 nM
SK-UT-1
  IC50: > 1280 nM
NCI-H226
  IC50: > 1280 nM
LS-513
  IC50: > 1280 nM
BB30-HNC
  IC50: > 1280 nM
NCI-H1395
  IC50: > 1280 nM
OCUB-M
  IC50: > 1280 nM
KGN
  IC50: > 1280 nM
EW-18; read-out: IC50
  IC50: > 1280 nM
no-10
  IC50: > 1280 nM
ACN
  IC50: > 1280 nM
OCI-AML2
  IC50: > 1280 nM
GAK
  IC50: > 1280 nM

## Cc1ccc(NC(=O)c2ccc(CN3CCN(C)CC3)cc2)cc1Nc1nccc(-c2cccnc2)n1 [IMATINIB]
D-502MG
  IC50: […]
HT
  IC50: […]
KLE
  IC50: […]
DU-4475
  IC50: […]
QIMR-WIL
  IC50: […]
IST-SL1
  IC50: […]
HEL
  IC50: […]
NCI-H1770
  IC50: […]
MSTO-211H
  IC50: […]
TE-9
  IC50: […]
BV-173
  IC50: 187 nM
NB5
  IC50: […]
DOHH-2
  IC50: […]
A704
  IC50: […]
EW-16
  IC50: […]
KY821
  IC50: […]
LC-2-ad
  IC50: […]
NCI-H1581
  IC50: […]
IST-MEL1
  IC50: […]
D-247MG
  IC50: […]
TE-8
  IC50: […]
HDLM-2
  IC50: […]
A388
  IC50: […]
NCI-H1838
  IC50: […]
LAN-6
  IC50: […]
TE-5
  IC50: […]
ES7
  IC50: […]
KINGS-1
  IC50: […]
MPP-89
  IC50: […]
NCI-H1092
  IC50: […]
MMAC-SF
  IC50: […]
no-11
  IC50: […]
SW982
  IC50: […]
EM-2
  IC50: 88.8 nM
NCI-H69
  IC50: […]
SW872
  IC50: […]
EW-11
  IC50: […]
SK-UT-1
  IC50: […]
NCI-H226
  IC50: […]
LS-513
  IC50: […]
BB30-HNC
  IC50: […]
NCI-H1395
  IC50: […]
OCUB-M
  IC50: […]
KGN
  IC50: […]
EW-18
  IC50: […]
no-10
  IC50: […]
ACN
  IC50: […]
OCI-AML2
  IC50: […]
GAK
  IC50: […]

## COc1cc(N2CCC(N3CCN(C)CC3)CC2)ccc1Nc1ncc(Cl)c(Nc2ccccc2S(=O)(=O)C(C)C)n1 [TAE-684]
D-502MG
  IC50: […]
HT
  IC50: […]
KLE
  IC50: […]
DU-4475
  IC50: 1460 nM
QIMR-WIL
  IC50: […]
IST-SL1
  IC50: […]
HEL
  IC50: 1150 nM
NCI-H1770
  IC50: […]
MSTO-211H
  IC50: […]
TE-9
  IC50: 1110 nM
BV-173
  IC50: […]
NB5
  IC50: 1580 nM
DOHH-2
  IC50: 312 nM
A704
  IC50: 1330 nM
EW-16
  IC50: 106 nM
KY821
  IC50: […]
LC-2-ad
  IC50: 197 nM
NCI-H1581
  IC50: […]
IST-MEL1
  IC50: […]
D-247MG
  IC50: […]
TE-8
  IC50: 429 nM
HDLM-2
  IC50: […]
A388
  IC50: […]
NCI-H1838
  IC50: […]
LAN-6
  IC50: 174 nM
TE-5
  IC50: […]
ES7
  IC50: […]
KINGS-1
  IC50: […]
MPP-89
  IC50: 579 nM
NCI-H1092
  IC50: […]
MMAC-SF
  IC50: […]
no-11
  IC50: […]
SW982
  IC50: 165 nM
EM-2
  IC50: 1850 nM
NCI-H69
  IC50: 1560 nM
SW872
  IC50: 567 nM
EW-11
  IC50: […]
SK-UT-1
  IC50: […]
NCI-H226
  IC50: […]
LS-513
  IC50: […]
BB30-HNC
  IC50: 1130 nM
NCI-H1395
  IC50: […]
OCUB-M
  IC50: 1360 nM
KGN
  IC50: 662 nM
EW-18; read-out: IC50
  IC50: […]
no-10
  IC50: […]
ACN
  IC50: […]
OCI-AML2
  IC50: 483 nM
GAK
  IC50: […]
